# Experimental data taken from patent US20230303513A1, “OXOPYRROLIDINE UREA FPR2 AGONISTS” (BRISTOL-MYERS SQUIBB COMPANY, priority 2020, published 2023).
# Read-outs that look alike come from different tables or passages of the source.
# Experiments:
# human FPR2 = human FPR2 (Homo sapiens (Human), UniProt P25090); assay: FPR2 cyclic adenosine monophosphate (cAMP) assay; type: cell-based; conditions: read-out: hFPR2 cAMP2 EC50
# Excerpt: (§1) N-formyl peptide receptors (FPRs) are a family of chemo attractant receptors that facilitate leukocyte response during inflammation. FPRs belong to the seven-transmembrane G protein-coupled receptor superfamily and are linked to inhibitory G-proteins (Gi). Three family members (FPR1, FPR2 and FPR3) have been identified in humans and are predominantly found in myeloid cells with varied distribution and have also been reported in multiple organs and tissues. After agonist binding, the FPRs activate a multitude of physiological pathways, such as intra cellular signaling transduction, Ca^21 mobilization and transcription. The family interacts with a diverse set of ligands that includes proteins, polypeptides and fatty acid metabolites which activate both pro-inflammatory and pro-resolution downstream responses. FPR2 and FPR1 Cyclic Adenosine Monophosphate (cAMP) Assays were used to measure the activity of the compounds in this patent.
# (§2) FPR2 and FPR1 Cyclic Adenosine Monophosphate (cAMP) Assays. A mixture of forskolin (5 μM final for FPR2 or 10 μM final for FPR1) and IBMX (200 μM final) were added to 384-well Proxiplates (Perkin-Elmer) pre-dotted with test compounds in DMSO (1% final) at final concentrations in the range of 0.020 nM to 100 μM. Chinese Hamster Ovary cells (CHO) overexpressing human FPR1 or human FPR2 receptors were cultured in F-12 (Ham's) medium supplemented with 10% qualified FBS, 250 μg/ml zeocin and 300 μg/ml hygromycin (Life Technologies). Reactions were initiated by adding 2,000 human FPR2 cells per well or 4,000 human FPR1 cells per well in Dulbecco's PBS (with calcium and magnesium) (Life Technologies) supplemented with 0.1% BSA (Perkin-Elmer). The reaction mixtures were incubated for 30 min at room temperature. The level of intracellular cAMP was determined using the HTRF HiRange cAMP assay reagent kit (Cisbio) according to manufacturer's instruction. Solutions of cryptate conjugated anti-cAMP and d2 flurorophore-labelled cAMP were made in a supplied lysis buffer separately. Upon completion of the reaction, the cells were lysed with equal volume of the d2-cAMP solution and anti-cAMP solution. After a 1-h room temperature incubation, time-resolved fluorescence intensity was measured using the Envision (Perkin-Elmer) at 400 nm excitation and dual emission at 590 nm and 665 nm. A calibration curve was constructed with an external cAMP standard at concentrations ranging from 1 μM to 0.1 μM by plotting the fluorescent intensity ratio from 665 nm emission to the intensity from the 590 nm emission against cAMP concentrations. The potency and activity of a compound to inhibit cAMP production was then determined by fitting to a 4-parametric logistic equation from a plot of cAMP level versus compound concentrations.
# human FPR1 = human FPR1 (Homo sapiens (Human), UniProt P21462); assay: FPR1 cyclic adenosine monophosphate (cAMP) assay; type: cell-based; conditions: read-out: hFPR1 cAMP EC50
# Excerpt: as §1, §2
# [1] = CHO cells overexpressing human FPR2, forskolin 5 μM, IBMX 200 μM, inhibition of cAMP production, HTRF
# [2] = CHO cells overexpressing human FPR1, forskolin 10 μM, IBMX 200 μM, inhibition of cAMP production, HTRF
# Sequence of human FPR1 (P21462 whole entry): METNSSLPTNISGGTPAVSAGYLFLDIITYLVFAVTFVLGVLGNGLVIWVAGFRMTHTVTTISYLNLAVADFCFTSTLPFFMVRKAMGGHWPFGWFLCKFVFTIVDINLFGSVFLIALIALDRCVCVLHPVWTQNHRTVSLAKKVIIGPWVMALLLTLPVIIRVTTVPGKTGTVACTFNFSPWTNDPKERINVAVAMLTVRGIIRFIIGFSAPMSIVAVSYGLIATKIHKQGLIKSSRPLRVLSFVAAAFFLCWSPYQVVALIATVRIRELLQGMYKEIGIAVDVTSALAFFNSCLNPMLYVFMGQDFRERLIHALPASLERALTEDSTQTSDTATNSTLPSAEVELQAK
# Sequence of human FPR2 (P25090 whole entry): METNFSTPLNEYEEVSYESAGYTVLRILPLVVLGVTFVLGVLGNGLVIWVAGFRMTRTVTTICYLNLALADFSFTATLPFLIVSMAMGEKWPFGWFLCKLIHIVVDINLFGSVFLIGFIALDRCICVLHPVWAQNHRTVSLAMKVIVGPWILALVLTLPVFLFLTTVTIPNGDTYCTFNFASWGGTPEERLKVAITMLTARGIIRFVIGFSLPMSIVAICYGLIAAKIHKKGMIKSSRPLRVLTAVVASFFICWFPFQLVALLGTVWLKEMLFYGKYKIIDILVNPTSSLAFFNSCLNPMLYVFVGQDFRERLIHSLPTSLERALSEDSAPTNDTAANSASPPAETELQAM
EC50 (human FPR2; [1]) [nM],EC50 (human FPR1; [2]) [nM],EC50 (human FPR2) [nM],EC50 (human FPR1) [nM],Structure (SMILES)
9.9,2500,–,–,COc1ccc([C@H]2C[C@@H]2NC(=O)N[C@@H]2C(=O)N(c3ncccc3C(F)(F)F)C[C@H]2c2c(F)cc(OC)cc2F)cc1 [Example 49]
33,1200,–,–,COCCn1cccc(N2C[C@@H](c3c(F)cc(OC)cc3F)[C@H](NC(=O)N[C@H]3CC[C@H](C(F)F)CC3)C2=O)c1=O [Example 70]
0.4,1400,–,–,"COc1cc(F)c([C@@H]2CN(c3nccc(N4C[C@@H]5C[C@H]4CN5C)c3C(F)(F)F)C(=O)[C@H]2NC(=O)N[C@H]2CC[C@H](C(F)F)CC2)c(F)c1 (single isomer, unassigned) [Example 97]"
–,–,3.9,1200,COc1cc(F)c([C@@H]2CN(c3ncccc3C(F)(F)F)C(=O)[C@H]2NC(=O)N[C@H]2CC[C@H](C(F)F)CC2)c(F)c1 [Example 32]
97,> 10000,–,–,COc1cc(F)c([C@@H]2CN(c3ncccc3C(F)(F)F)C(=O)[C@H]2NC(=O)NC2CCC3(CC2)CC3)c(F)c1 [Example 67]
2.8,18,–,–,COc1cc(F)c([C@@H]2CN(c3ncccc3C(F)(F)F)C(=O)[C@H]2NC(=O)NC2CCc3ccccc3C2)c(F)c1 (stereo partly drawn) [Example 24]
0.9,0.8,–,–,CCn1cccc(N2C[C@@H](c3ccc(OC)cc3)[C@H](NC(=O)NC3CCc4cc(OC)ccc4C3)C2=O)c1=O (stereo partly drawn) [Example 12]
26,> 1000,–,–,"COc1cc(F)c([C@@H]2CN(c3nccc(NCC4CCOC4)c3C(F)(F)F)C(=O)[C@H]2NC(=O)N[C@H]2CC[C@H](C(F)F)CC2)c(F)c1 (single isomer, unassigned) [Example 74]"
13,24.6,–,–,COCCn1cccc(N2C[C@@H](c3c(F)cc(OC)cc3F)[C@H](NC(=O)NC3CCc4cc(OC)ccc4C3)C2=O)c1=O (stereo partly drawn) [Example 53]
6.2,730,–,–,"COc1cc(F)c([C@@H]2CN(c3nccc(NC4CCOC4)c3C(F)(F)F)C(=O)[C@H]2NC(=O)N[C@H]2CC[C@H](C(F)F)CC2)c(F)c1 (single isomer, unassigned) [Example 99]"
6,20,–,–,"COCC(CO)n1cccc(N2C[C@@H](c3c(F)cc(OC)cc3F)[C@H](NC(=O)NC3CCc4cc(OC)ccc4C3)C2=O)c1=O (single isomer, unassigned) [Example 3]"
44,> 5000,–,–,"COc1cc(F)c([C@@H]2CN(c3nccc(N4CCC(C)(O)C4)c3C(F)(F)F)C(=O)[C@H]2NC(=O)N[C@H]2CC[C@H](C(F)F)CC2)c(F)c1 (single isomer, unassigned) [Example 92]"
1,12,–,–,"COc1cc(F)c([C@@H]2CN(c3c(C)ccn(CCO)c3=O)C(=O)[C@H]2NC(=O)NC2CCc3cc(OC)ccc3C2)c(F)c1 (single isomer, unassigned) [Example 83]"
17,1200,–,–,COCCn1cccc(N2C(=O)[C@@H](NC(=O)N[C@H]3CC[C@H](C(F)F)CC3)[C@H](c3c(F)cc(OC)cc3F)[C@@H]2C)c1=O [Example 105]
23,> 1000,–,–,"CNC(=O)C(C)Nc1ccnc(N2C[C@@H](c3c(F)cc(OC)cc3F)[C@H](NC(=O)N[C@H]3CC[C@H](C(F)F)CC3)C2=O)c1C(F)(F)F (single isomer, unassigned) [Example 76]"
3.8,110,–,–,COc1cc(F)c([C@@H]2CN(c3ncccc3C(F)(F)F)C(=O)[C@H]2NC(=O)NC2CCc3cc(Cl)ccc3C2)c(F)c1 (stereo partly drawn) [Example 31]
5.6,0.5,–,–,CCn1cccc(N2C[C@@H](c3c(F)cc(OC)cc3F)[C@H](NC(=O)NC3CCc4cc(OC)ccc4C3)C2=O)c1=O (stereo partly drawn) [Example 41]
6.7,562,–,–,COCCn1cccc(N2C[C@@H](c3c(F)cc(OC)cc3F)[C@H](NC(=O)NC3CCc4cc(OC)ccc4C3(C)C)C2=O)c1=O (stereo partly drawn) [Example 45]
